Measurements reported in patent US20100196885A1, “METHODS OF […] COMPOUNDS FOR USE IN TREATING COPD AND OTHER DISEASES” (priority 2007, published 2010).

How the values were obtained:
COPD patients = assay: Spirometry in post-TIO therapy patients; type: in vivo, human; details: most post-TIO therapy patients
Description: (§1) COPD patients have elevated levels of D/I in plasma, urine and sputum, which might respond to prolonged bronchodilation. To determine if clinical effects of Tiotropium (TIO) affect tissue degradation of the lung in COPD, clinically stable patients with COPD (n=9) not on TIO prior to the study and at one month and a second month after initiating therapy were tested. Other anticholinergic bronchodilators were stopped prior to TIO, and other therapies/disease treatments were unchanged for the two months of study. To these patients, 18 mcg TIO was administered each 24 hours. D/I in plasma, urine and sputum were measured by liquid chromatography and mass spectrometry (LC/MS) prior to the study and at one month and two months after the study.
The improvement in spirometric indices were usually concordant with levels of D/I in patients.

lung elastin degradation = assay: D/I levels in plasma, urine and sputum of COPD patients before and after Tiotropium, by LC/MS; type: in vivo, human
Description: The mass spectrometric method was used for direct measurement of D/I in urine, plasma and sputum as markers of elastin degradation in healthy controls, patients with α1-antitrypsin deficiency (AATD) and non-AATD-related COPD. Preparation of specimens of urine and sputum and measurements by mass spectrometry (LC/MS) were performed as previously described in Ma S, Lieberman S, Turino G M and Lin Y Y: The detection and quantitation of free desmosine and isodesmosine in human urine and their peptide-bound forms in sputum. PNAS 2003, 100:12941-12943, which is incorporated by reference as if recited in full herein. D and I standard (mixed 50% D and 50% I) were purchased from Elastin Products (Owensville, Mich.), and all other reagents were from Sigma (St. Louis, Mo.). MCX cation exchange cartridges (3 ml) were obtained from Waters (Milford, Mass.), and CF1 cellulose powders were purchased from Whatman (Clifton, N.J.).
Urine samples. Twenty-four hour urine samples were collected and analyzed as previously described in Ma S, et al., 2003.
Plasma samples. Plasma samples were obtained after centrifuging venous blood specimens at 2500 r.p.m. for 25 min. Samples were stored at −20 C until used. One ml of plasma and 1 ml of concentrated HCl (37%) were placed in a glass vial. After air in the sample was displaced with a stream of nitrogen, the sample was acid hydrolyzed for 24 hours in 6N HCl. After evaporation to dryness, the residue was dissolved in 2 ml of a mixed solution of n-butanol/acetic acid/6 N HCl (4:1:1, by volume). The sample solution was loaded onto a 3 ml CF1 cartridge. The CF1 cartridge was prepared by introducing 3 ml of the slurry of 5% CF1 cellulose powder in a mixture of n-butanol/acetic acid/water (4:1:1, by volume). The cartridge was washed 3 times with 3 ml of n-butanol/acetic acid/water mixture, and D and I adsorbed in the CF1 cartridge were eluted with 3 ml of water. The eluate was evaporated to dryness under vacuum at 45° C. and the residue was dissolved in 0.1 ml of HPLC mobile phase for LC/MS analysis. For analysis in plasma, samples were processed and measured in duplicate and the results averaged.
Sputum Samples. Sputum samples were processed as previously described in Ma S, et al., 2003 with the following modification: The acid hydrolyzed samples were chromatographed using a CF1 cartridge as described in the treatment of plasma samples. Each sputum sample was processed and measured in duplicate and the results averaged. Sputum was obtained from 3-hour morning collections spontaneously produced. When subjects could not voluntarily produce sputum, sputum induction was induced by 3% saline inhalation for 20 minutes as previously described in Ma S, et al., 2003.
as §1, with “To determine if clinical effects of Tiotropium (TIO) affect tissue degradation of the lung in COPD, clinically stable patients with COPD (n=9) not on TIO prior to the study and at one month and a second month after initiating therapy were tested.” left out

Which “Force Vital Capacity (FVC)” value (COPD patients) does the source give for `C[N+]1(C)[C@@H]2C[C@@H](OC(=O)C(O)(c3cccs3)c3cccs3)C[C@H]1[C@@H]1O[C@@H]12` [Tiotropium] here?
Its value is “significant increase”.

What about the “Forced Expired Volume in 1 second (FEV1)” value (COPD patients) of the same compound?
Its value is “significant increase”.

What about the “Residual Volume (RV)” value (COPD patients) of the same compound?
The value was “decreases”.

What about the “ratio of FEV1/FVC” value (COPD patients) of the same compound?
The value was “significant increase”.

And the “Significant decreases in D/I levels in plasma (patients showing decrease)” value (lung elastin degradation; COPD patients, 18 mcg TIO each 24 hours, one and two months, plasma, LC/MS)?
The value was 10 out of 12.

What about the “Significant decreases in D/I levels in sputum (patients showing decrease)” value (lung elastin degradation; COPD patients, 18 mcg TIO each 24 hours, one and two months, sputum, LC/MS) of the same compound?
The value was “all 12 patients”.

What about the “Significant decreases in D/I levels in urine (patients showing decrease)” value (lung elastin degradation; COPD patients, 18 mcg TIO each 24 hours, one and two months, urine, LC/MS) of the same compound?
The value was 10 out of 12.

And the “Calculated percentage decreases in D/I levels after TIO treatment, time course” value (lung elastin degradation; COPD patients, one month vs second month of TIO)?
The value was “decreases beginning after one month with further decreases observed in the second month”.

What about the “D/I levels in plasma, urine and sputum after two months of treatment” value (lung elastin degradation; COPD patients, two months of TIO) of the same compound?
The value was “significant reductions”.

And the “Lung elastin degradation, overall response from percent decreases in D/I levels” value (lung elastin degradation; all 12 COPD patients, prolonged TIO treatment)?
The value was “some decrease in lung elastin degradation”.
